Data set [1] in a line: Mouse Study III (infection study, WBC counts). Format: in vivo, C57BL/6 mice. Conditions: Day 11. How it is done: C57BL/6 mice (n=10/dose group), treated i.p. 50 mg/kg MTX on Day 1, 2, 3, 4, 6 and 8 along with 60 mg/kg TK-112690 i.p. 3 hr±MTX followed by single daily doses TK-112690 on days not treated with MTX. On Day 11, the animals were sacrificed and hematology performed on the resulting blood. Group 1=saline control, Group 2=MTX control and Group 3=MTX+TK-112690.
For the study whose data are presented in FIG. 4, C57BL/6 mice (n=10/dose group) were treated i.p. with 50 mg/kg MTX on Day 1, 2, 3, 4, 6 and 8 along with 60 mg/kg TK-112690 i.p. 3 hr±MTX followed by single daily doses TK-112690 on days not treated with MTX. On Day 11, the animals were bled and hematology performed on the resulting blood samples. Following the hematology measurements, the animals were sacrificed.

The subject of a further data set is CCRF-CEM human tumors. Kind of data set: Mouse Study IV (xenograft with CCRF-CEM implants). Format: in vivo, SCID mice. The settings on record: MTX 7.5 mg/kg/injection + TK-112690 30 mg/kg ±3 hrs ip; day 27; p=1. As for the experimental part: In this study, n=10 SCID mice per dose group were treated with CCRF-CEM human tumors and the tumors allowed to grow to a size of approximately 100 mg. Then the animals were treated by intraperitoneal (ip) injection with either control 20% DMSO/80% PBS (1×/day)×5 days (Group 1), MTX 7.5 mg/kg/injection (1×/day)×5 days (Group 2) or MTX 7.5 mg/kg/inj. (1×/day)×5 days+TK-112690 30 mg/kg/inj.±3 hrs (group 3). The Figure provides tumor sizes in each of the 3 groups on Day 27 of the study.
A xenograft study was performed to analyze the effect of TK-112690. administration on the in vivo efficacy of MTX against a human cancer. Human CCRF-CEM (T-ALL) cells were implanted subcutaneously into SCID mice. Tumor volumes were recorded on a regular basis, and once tumors had become established, treatment was given. […] All treatments were given ip, and TK-112690 was give 3 hours prior to and 3 hours after MTX administration.

Data set [2] can be described thus: Mouse Study VI (plasma uridine and TK-112690 following TK-112690 treatment). The data set is classed as in vivo, CD-1 female mice. How it is done: In this study, CD-1 female mice were injected ip with 120 mg/kg TK-112690 and plasma from the animals analyzed by HPLC using UV detection for TK-112690 and uridine. Concentrations of uridine and TK-112690 in plasma samples collected 0.08, 0.50, 1, 2, 4 or 12 hours post TK-112690 injection were determined by HPLC using UV detection. […] An increase in plasma uridine was noted almost immediately following administration of TK-112690. At 0.5 hour post TK-112690 dose, a 100 μg/mL plasma concentration TK-112690 is associated with a plasma uridine concentration of approximately 2 μg/mL of uridine (baseline uridine concentration approximately 0.5 μg/mL). As expected, inhibition of UPase by TK-112690 results in elevation of plasma uridine.
Plasma uridine concentration was determined by HPLC using UV detectionafter animals were treated with TK-112690 as follows. TK-112690 was dissolved in PBS to achieve a concentration of 500 mg/mL. CD-1 female mice were injected ip with a range of TK-112690 doses (0, 15, 30, 60 and 120 mg/kg) and plasma from the animals analyzed for TK-112690 uridine concentrations expected to be elevated through UPase inhibition by TK-112690. Plasma uridine concentrations were determined from plasma samples collected 0.08, 0.50, 1, 2, 4 or 12 hours post TK-112690 injection.
HPLC analysis was done at room temperature using a ThermoFinnigan Spectra System equipped with degasser, pump, autosampler and UV detector. Chromatograms will be constructed from a chart recorder equipped with a pen. […]
The micromolar concentration of plasma uridine was determined by linear equation (y=mx+b) generated from uridine and 5-FU calibration curve. The y value is calculated by taking ratio of peak heights (mm) of uridine and 5-FU. All peak heights from HPLC chromatograms were measured in millimeters using a ruler.
An identical approach was employed to quantitate TK-112690 in the samples except the response for TK-112690 was attenuated by a response factor determined from the injection into the HPLC of identical amounts of TK-112690 and uridine, […]

This is an account of results in US8853227B2, “Methotrexate adjuvants to reduce toxicity and methods for using the same” (Tosk, Incorporated, priority 2008, dated 2014).

On to `CN(Cc1cnc2nc(N)nc(N)c2n1)c1ccc(C(=O)N[C@@H](CCC(=O)O)C(=O)O)cc1` [MTX, N-[4-[[(2,4-diamino-6-pteridinyl)methyl]methylamino]benzoyl]-L-glutamic acid, reference compound], for which, in data set [1] (50 mg/kg MTX ip Day 1, 2, 3, 4, 6, 8, p<0.02 vs saline or MTX+TK-112690), the “systemic WBC level” value is reported as “increases systemic WBC”.

As for `Cc1cn2c(nc1=O)O[C@H]1[C@H](O)[C@@H](CO)O[C@H]12` [TK-112690, 2,2′-anhydro-5-methyluridine], the “tumor volume, MTX+TK-112690 versus MTX” value in the data set on CCRF-CEM human tumors is recorded as “not significantly different”. The “protection from MTX-induced mucositis measured as prevention of WBC increase” value in data set [1] (60 mg/kg ip 3 hr ± MTX 50 mg/kg) is “protects from MTX-induced mucositis”. Also, the “dose dependence of plasma concentrations of TK-112690” value in data set [2] (0, 15, 30, 60 and 120 mg/kg ip) was “increased with increasing doses”. Also, the plasma uridine concentration result in data set [2] (0.5 hour post TK-112690 dose, at 100 μg/mL plasma TK-112690, baseline approximately 0.5 μg/mL) is listed as “approximately 2 μg/mL”. Moreover, the concentration at 0.5 h in data set [2] (female, CD-1, plasma, 120 mg/kg, 0.5 hour post TK-112690 dose, ip, mouse) was 100 µg/mL.
